Results: patent US20180298405A1, “METHODS AND COMPOSITIONS TO INCREASE HUMAN SOMATIC CELL NUCLEAR TRANSFER (SCNT) EFFICIENCY BY REMOVING HISTONE H3-LYSINE TRIMETHYLATION, AND DERIVATION OF HUMAN NT-ESC” (CHILDREN'S MEDICAL CENTER CORPORATION, priority 2015, published 2018)
Values joined by “and” are separate entries in the source; they are usually repeats but may differ in a detail not shown here. Equal values may be shown once.

Assays:
[1] = system: human SCNT embryos; test: Preimplantation development of KDM4A-assisted human SCNT embryos; type: cell-based; conditions: for embryos reaching the blastocyst stage: day 6; for embryos developed to the expanded blastocyst stage: day 7
Protocol: All MII stage human oocytes with distinctive 1st polar bodies were enucleated under an inverted microscope equipped with a Poloscope (Oosight®, Cambridge Research & Instrumentation). The enucleation and nuclear donor cell fusion were carried out in the presence of caffeine (1.25 mM). For enucleation, oocytes were pre-incubated in Global HTF medium with Hepes (Life Global) containing 0.5 μg/ml cytochalasin B and caffeine (1.25 mM) for 5 minutes. Then, the spindle complex was removed using a PIEZO actuator (Primetech, Japan). Dermal fibroblast cells resuspended in a drop containing HVJ-E extract (Cosmo Bio, USA) were inserted into the perivitelline space of the enucleated oocytes. The reconstructed oocytes were kept in the manipulation medium containing caffeine (1.25 mM) until the cell fusion was confirmed, and then the reconstructed oocytes were transferred into Global medium 10% SPS, and incubated for 1-1.5 hours before activation. Activation was carried out by applying electropulses (2×50 μs DC pulses, 2.7 kV/cm) in 0.25M d-sorbitol buffer and 6-DMAP (2 mM, 4 hrs) as previously described (Tachibana et al., 2013). The activated embryos were transferred to Global 10% SPS medium supplemented with Trichostatin A (TSA, 10 nM, Sigma) for 12 hrs, then the embryos were transferred to Global 10% FBS without TSA and cultured for up to 7 days in an incubator with atmosphere of 6% CO2/5% O2/89% N2 at 37° C. The culture medium was changed on day 3.
For mRNA injection, the activated SCNT embryos were washed and cultured in Global 10% SPS for 1 hr before the KDM4A mRNA injection. Approximately 10 pl of KDM4A mRNA were injected into the SCNT embryos at 5 hours after activation in Hepes-HTF 10% SPS medium using a PIEZO actuator as described previously (Matoba et al., 2014). More details on donor cell preparation, mRNA preparation, RNA-seq and other procedures can be found in the Supplemental Experimental Procedures.
(§1) In vitro transcription was performed as described previously (Matoba et al., 2014). Briefly, full length human KDM4A/JHDM3A cDNA was cloned into a pcDNA3.1 plasmid containing poly(A)83 at the 3′ end of cloning site. The catalytic defective mutant form of KDM4A (H188A) was generated using PrimeSTAR mutagenesis kit (TAKARA # R045A). mRNA was synthesized using the mMESSAGE mMACHINE T7 Ultra Kit (Life technologies # AM1345). The synthesized mRNA was dissolved in nuclease-free water. The concentration of mRNA was measured by NanoDrop ND-1000 spectrophotometer (NanoDrop Technologies). Aliquots of mRNA were stored at −80° C. until use.
Ovarian stimulation was carried out as described previously (Chung et al., 2014). Briefly, a combination of human recombinant follicle-stimulating hormone (rFSH, 225-3001U, Merck) and human menopausal gonadotropin (Menopur 751U, Ferring) were used to stimulate ovary for 9-11 days with GnRH antagonist (Ganirelix acetate, Merck) suppression. Lupron 4 mg was used to mimic the LH surge when 1 or 2 follicles reached 18 mm in diameter. All medications were administered through subcutaneous injections. Transvaginal oocyte retrieval was performed approximately 36 hours after the Lupron injection. The collected COCs were denuded with 5080 IU/ml hyaluronidase (Sigma-Aldrich) within 1-2 hours after retrieval. Then, they were kept in Global medium supplemented with 10% serum protein supplement (SPS; Cooper Surgical) (IVF Online) until use.
The procedures for somatic nuclear donor cell preparation are essentially the same as previously described (Chung et al., 2014). Briefly, the skin explant was mechanically minced and treated with collagenase (type I, 200 unit/ml, Worthington-biochem) in DMEM supplemented with 10 μg/ml penicillin-streptomycin solution to dissociate the skin tissue. […]

[2] = system: mouse SCNT embryos; test: Preimplantation development of KDM4A-assisted mouse SCNT embryos; type: cell-based; conditions: cumulus donor cells, mRNA injected at 5-6 hpa; for % blast per 2-cell ± SD: blastocyst stage
Protocol: B6D2F1/J (BDF1) mice were produced by crossing C57BL/6J females with DBA/2J males, and were used for the collection of both oocyte and somatic nuclear donor for SCNT. All animal experiments were approved by the Institutional Animal Care and Use Committee of Harvard Medical School.
as §1
Mouse somatic cell nuclear transfer was carried out as described previously (Matoba et al., 2014). Briefly, both recipient MII oocytes and donor cumulus cells were collected from adult BDF1 female mice through superovulation by injecting 7.5 IU of pregnant mare serum gonadotropin (PMSG; Millipore #367222) and 7.5 IU of human chorionic gonadotropin (hCG; Millipore #230734). Fifteen to seventeen hours after the hCG injection, cumulus-oocyte complexes (COCs) were collected from the oviducts and treated briefly with Hepes-buffered potassium simplex-optimized medium (KSOM) containing 300 U/ml bovine testicular hyaluronidase (Calbiochem #385931) to obtain dissociated MII oocytes and cumulus cells. Isolated MII oocytes were enucleated in Hepes-buffered KSOM medium containing 7.5 jig/ml of cytochalasin B (Calbiochem #250233) by using Piezo-driven micromanipulator (Primetech # PMM-150FU). The nuclei of donor cumulus cells were injected into the enucleated oocytes. After 1 h incubation in KSOM, reconstructed SCNT oocytes were activated by incubating in Ca-free KSOM containing 2.5 mM SrCl2 and 5 jig/ml cytochalasin B for 1 h, and further cultured in KSOM with cytochalasin B for 4 h. Activated SCNT embryos were washed 5 hrs after the onset of SrCl2 treatment (hours post activation, hpa) and cultured in KSOM in a humidified atmosphere with 5% CO2 at 37.8° C. The SCNT embryos were injected with ˜10 pl of water (control), 1500 ng/μ1 wild-type or mutant (H188A) human KDM4A mRNA at 5-6 hpa by using a Piezo-driven micromanipulator. Preimplantation developmental rates were analyzed by Student's T-test.

[3] = pooled four oocyte donors, per 2-cell
[4] = pooled four oocyte donors, per 2-cell, listed as KDM4A

KDM4A mRNA: in vitro transcribed mRNA of full length human KDM4A/JHDM3A cDNA, an H3K9me3 demethylase (SEQ ID NO: 1)
oocyte donors whose oocytes supported blastocyst formation ([1]; four oocyte donors tested, TSA present): all four donors tested supported blastocyst formation
embryos reaching the blastocyst stage [1, 3]: 26.8% and 27%
embryos reaching the blastocyst stage [1, 4]: 26.8%
embryos developed to the expanded blastocyst stage [1, 3]: 14.3%
embryos developed to the expanded blastocyst stage [1, 4]: 14% and 14.3%
developmental rate to 8-cell stage [1, 3]: 71.4%
developmental rate to morula stage [1, 3]: 32%
developmental rate to morula stage [1, 4]: 32.1%
cleavage efficiency to form 2-cell embryos ([1]; pooled oocytes of four donors, AMD patient fibroblast donors, mRNA injected 5 h after activation, per 1-cell): 88.9%
increase in hSCNT embryos developing into blastocysts ([1]; versus control hSCNT embryos (4.2%)): greater than 20%
increase in embryos reaching expanded blastocyst stage ([1]; versus non-treated human SCNT embryos (0%)): 14%
% 4-cell per 2-cell ± SD [2]: 43.3 ± 7.6%
% cleaved per 1-cell ± SD [2]: 93.7 ± 2.7%
% morula per 2-cell ± SD [2]: 35.5 ± 13.5%
% blast per 2-cell ± SD [2]: 90.3% and 90%
% blast per 2-cell ± SD ([2]; listed as KDM4A): 23.7 ± 11.6%
% blast per 2-cell ± SD ([2]; listed as KDM4A WT): 90.3 ± 0.3 %
% 4-cell per 2-cell ± SD ([2]; listed as KDM4A WT): 96.8 ± 2.7 %
% cleaved per 1-cell ± SD ([2]; listed as KDM4A WT): 97.0 ± 5.2%
% morula per 2-cell ± SD ([2]; listed as KDM4A WT): 92.5 ± 3.6 %
